According to ChEMBL document CHEMBL4483862, “Open-source discovery of chemical leads for next-generation chemoprotective antimalarials” (2018):

Tested on: Plasmodium berghei
Assay: Luciferase/luciferin-expressing antifolate-resistant parasites were used to infect a culture of HepG2 cells that were pre-incubated with compounds. Infected hepatocytes emit light due to the luciferase reaction. Assay results are presented as the percent inhibition of light emission compared to control. […]
Type: functional
Conditions: sporozoite; for IC90: read-out: LUCIFERASE INFECTION ASSAY - IC90
[1] = read-out: LUCIFERASE INFECTION ASSAY - IC50

Row | SMILES | IC50 [1] [µM] | IC90 [µM] | also measured
1 | Clc1ccc2c(NCCCNc3ccccn3)ncnc2c1 | > 10 | > 10 | –
2 | Cc1cc(N(Cc2ccc(C(C)C)cc2)C2CC2)n2ncnc2n1 | – | > 10 | IC50 (HEPG2TOX_HILL_SLOPE 2.35, HEPG2TOX_R_SQUARED 0.908, PBLUC_HILL_SLOPE 2.49, PBLUC_R_SQUARED 0.764, read-out: LUCIFERASE INFECTION ASSAY - IC50): 4.95 µM
3 | Cn1c(-c2ccccc2)c(C(=O)COc2ccc(-c3ccccc3)cc2)c2ccccc21 | – | > 10 | IC50 (HEPG2TOX_HILL_SLOPE 1.37, HEPG2TOX_R_SQUARED 0.968, PBLUC_HILL_SLOPE 1.98, PBLUC_R_SQUARED 0.384, read-out: LUCIFERASE INFECTION ASSAY - IC50): 4.87 µM
4 | O=C(Nc1ccc(Cl)c(C(F)(F)F)c1)C(c1ccccc1)N1CC=C(c2ccccc2)CC1 (configuration not stated) | – | > 10 | IC50 (PBLUC_HILL_SLOPE 3.35, PBLUC_R_SQUARED 0.119, read-out: LUCIFERASE INFECTION ASSAY - IC50): 7.2 µM
5 | CC(=O)Nc1ccc(NC(=O)C2=COC3=NC(=O)N(Cc4ccccc4C)CCN23)cc1 | – | > 10 | IC50 (HEPG2TOX_HILL_SLOPE 0.88, HEPG2TOX_R_SQUARED 0.892, PBLUC_HILL_SLOPE 1, PBLUC_R_SQUARED 0.725, read-out: LUCIFERASE INFECTION ASSAY - IC50): 4.16 µM
6 | CC(C#N)(NC(=O)CN1CCN(S(=O)(=O)c2ccc(Cl)s2)CC1)C1CC1 (configuration not stated) | – | > 10 | IC50 (PBLUC_HILL_SLOPE 12.5, PBLUC_R_SQUARED 0.341, read-out: LUCIFERASE INFECTION ASSAY - IC50): 9.26 µM
7 | COc1ccc(OC)c2c1CN(c1cnn(-c3nc4ccccc4[nH]3)c(=O)c1Cl)CC2O (configuration not stated) | > 10 | > 10 | –
8 | O=C(Nc1ccc2c(c1)OC1(CCCCC1)O2)c1ccc[nH]c1=O | – | > 10 | IC50 (FFLUC_HILL_SLOPE 3.32, FFLUC_R_SQUARED 0.581, PBLUC_HILL_SLOPE 0.537, PBLUC_R_SQUARED 0.823, read-out: LUCIFERASE INFECTION ASSAY - IC50): 0.172 µM
9 | N#CC(C#N)=NNc1ccccc1Oc1ccc(Cl)cc1Cl | – | > 9.96 | IC50 (FFLUC_HILL_SLOPE 1.54, FFLUC_R_SQUARED 0.588, HEPG2TOX_HILL_SLOPE 1.18, HEPG2TOX_R_SQUARED 0.604, read-out: LUCIFERASE INFECTION ASSAY - IC50): > 9.96 µM
10 | O=C1c2n[nH]c(-c3ccccc3O)c2C(c2ccccc2F)N1Cc1ccco1 (configuration not stated) | – | > 8.47 | IC50 (FFLUC_HILL_SLOPE 2.17, FFLUC_R_SQUARED 0.481, read-out: LUCIFERASE INFECTION ASSAY - IC50): > 8.47 µM
11 | COc1ccc(CNc2ncnc3ccccc23)cc1 | – | > 10 | IC50 (PBLUC_HILL_SLOPE 1.65, PBLUC_R_SQUARED 0.126, read-out: LUCIFERASE INFECTION ASSAY - IC50): 3.67 µM
12 | Cc1cc(NC(=O)c2ccc(C)c(C)c2)n(-c2nc3ccccc3[nH]2)n1 | – | > 9.55 | IC50 (PBLUC_HILL_SLOPE 14, PBLUC_R_SQUARED 0.327, read-out: LUCIFERASE INFECTION ASSAY - IC50): 8.17 µM
13 | COc1cc(C(=O)NCC(c2ccco2)N2CCCCC2)ccc1Oc1ccc(Cl)cc1[N+](=O)[O-] (configuration not stated) | 5.95 | > 10 | –
14 | CN(C)c1ccc(-c2cc3cnc(Nc4cccc(Oc5ccccc5)c4)cc3n2C)cc1 | – | 6.91 | IC50 (FFLUC_HILL_SLOPE 1.74, FFLUC_R_SQUARED 0.698, HEPG2TOX_HILL_SLOPE 44.7, HEPG2TOX_R_SQUARED 0.888, PBLUC_HILL_SLOPE 2.41, PBLUC_R_SQUARED 0.586, read-out: LUCIFERASE INFECTION ASSAY - IC50): 2.77 µM
15 | Cc1cc(NC(=O)c2cc(-c3cccs3)nc3ccccc23)n(-c2ccccn2)n1 | – | 4.61 | IC50 (HEPG2TOX_HILL_SLOPE 1.34, HEPG2TOX_R_SQUARED 0.908, PBLUC_HILL_SLOPE 3.47, PBLUC_R_SQUARED 0.53, read-out: LUCIFERASE INFECTION ASSAY - IC50): 2.45 µM
16 | CCNC(=O)N1CCc2nc(NCc3cccc(Oc4ccccc4)c3)ncc2C1 | – | 3.94 | IC50 (HEPG2TOX_HILL_SLOPE 10.3, HEPG2TOX_R_SQUARED 0.577, PBLUC_HILL_SLOPE 136, PBLUC_R_SQUARED 0.208, read-out: LUCIFERASE INFECTION ASSAY - IC50): 3.87 µM
17 | Cc1ccc(-n2nc(-c3ccc(OC(F)(F)F)cc3)cc2NC(=O)Nc2ccc(OC(F)(F)F)cc2)cc1C | – | > 6 | IC50 (FFLUC_HILL_SLOPE 0.93, FFLUC_R_SQUARED 0.122, PBLUC_HILL_SLOPE 17.9, PBLUC_R_SQUARED 0.245, read-out: LUCIFERASE INFECTION ASSAY - IC50): 5.99 µM
18 | O=C(Nc1nc(C23CC4CC(CC(C4)C2)C3)cs1)C1=COCCO1 | – | > 10 | IC50 (PBLUC_HILL_SLOPE 3.95, PBLUC_R_SQUARED 0.0619, read-out: LUCIFERASE INFECTION ASSAY - IC50): 7.07 µM
19 | COc1ccc2cc(/C(C)=N/OC(=O)Nc3ccccc3)ccc2c1 | – | > 9.87 | IC50 (HEPG2TOX_HILL_SLOPE 1.11, HEPG2TOX_R_SQUARED 0.992, read-out: LUCIFERASE INFECTION ASSAY - IC50): > 9.87 µM
20 | Cc1cc(N2CCN(C(=O)C(C)Oc3ccc(F)cc3)CC2)nc(C(C)C)n1 (configuration not stated) | > 10 | > 10 | –
21 | COc1c(C)cc(C(O)c2nc(-c3cccc4ccccc34)c[nH]2)cc1C (configuration not stated) | – | > 9.21 | IC50 (FFLUC_HILL_SLOPE 13.5, FFLUC_R_SQUARED 0.422, HEPG2TOX_HILL_SLOPE 8.48, HEPG2TOX_R_SQUARED 0.286, read-out: LUCIFERASE INFECTION ASSAY - IC50): > 9.21 µM

Row | SMILES | IC50 [1] [µM] | IC90 [µM] | also measured
22 | O=C(Nc1nc(-c2ccc(Cl)cc2Cl)cs1)C1CCN(c2ccc(Cl)nn2)CC1 | > 10 | > 10 | –
23 | N#Cc1cc(Cl)ccc1N1C(=O)C=CC1=O | – | > 14.2 | IC50 (FFLUC_HILL_SLOPE 1.82, FFLUC_R_SQUARED 0.838, PBLUC_HILL_SLOPE 13, PBLUC_R_SQUARED 0.372, read-out: LUCIFERASE INFECTION ASSAY - IC50): 13.6 µM
24 | Cc1nc(SCc2csc(-c3ccccc3)n2)c(C#N)c(C)c1C | > 10 | > 10 | –
25 | CNc1snc(C)c1C(=O)OCc1csc(-c2ccccc2)n1 | – | 1.26 | IC50 (HEPG2TOX_HILL_SLOPE 0.385, HEPG2TOX_R_SQUARED 0.759, PBLUC_HILL_SLOPE 1.19, PBLUC_R_SQUARED 0.693, read-out: LUCIFERASE INFECTION ASSAY - IC50): 0.2 µM
26 | COc1cc(C)c(CN2CCC(c3nc4ccccc4s3)CC2)cc1OC | – | 5.49 | IC50 (HEPG2TOX_HILL_SLOPE 1.28, HEPG2TOX_R_SQUARED 0.688, PBLUC_HILL_SLOPE 2.8, PBLUC_R_SQUARED 0.756, read-out: LUCIFERASE INFECTION ASSAY - IC50): 2.5 µM
27 | CCCCN(CC(=O)N1CCCC(c2nc3ccccc3s2)C1)Cc1nc(=O)c2ccccc2[nH]1 (configuration not stated) | – | > 10 | IC50 (PBLUC_HILL_SLOPE 3.32, PBLUC_R_SQUARED 0.747, read-out: LUCIFERASE INFECTION ASSAY - IC50): 6.35 µM
28 | COc1cccc(C2c3sc(=O)[nH]c3SC3C4CCC(C4)C23)c1O (configuration not stated) | – | > 9.13 | IC50 (FFLUC_HILL_SLOPE 0.571, FFLUC_R_SQUARED 0.432, read-out: LUCIFERASE INFECTION ASSAY - IC50): > 9.13 µM
29 | CCC(C)(C)NS(=O)(=O)c1ccc(-n2ncc(Cl)c(Cl)c2=O)cc1 | – | 1.45 | IC50 (HEPG2TOX_HILL_SLOPE 13.4, HEPG2TOX_R_SQUARED 0.912, PBLUC_HILL_SLOPE 13.3, PBLUC_R_SQUARED 0.601, read-out: LUCIFERASE INFECTION ASSAY - IC50): 1.23 µM
30 | N#C/C(=C\c1sccc1Oc1ccccc1)S(=O)(=O)c1ccc(C(F)(F)F)cn1 | – | > 7.56 | IC50 (FFLUC_HILL_SLOPE 0.259, FFLUC_R_SQUARED 0.0664, read-out: LUCIFERASE INFECTION ASSAY - IC50): > 7.56 µM
31 | COc1cccc(-c2csc(-c3nnc4n3-c3ccccc3SC4)n2)c1 | 2.69 | 3.9 | –
32 | Cc1cc(-c2nc(=O)c3ccccc3[nH]2)c(C)n1-c1cccc(S(=O)(=O)N2CCOCC2)c1 | – | > 10 | IC50 (PBLUC_HILL_SLOPE 0.619, PBLUC_R_SQUARED 0.0201, read-out: LUCIFERASE INFECTION ASSAY - IC50): > 10 µM
33 | COc1cccc(/C=C/c2nnc(O)c(C#N)c2C)c1 | – | 6.75 | IC50 (HEPG2TOX_HILL_SLOPE 3.05, HEPG2TOX_R_SQUARED 0.959, PBLUC_HILL_SLOPE 3.8, PBLUC_R_SQUARED 0.551, read-out: LUCIFERASE INFECTION ASSAY - IC50): 3.79 µM
34 | Cc1ccc(Cn2nc(C)c(C(=O)OCC(=O)/C=C3\N(C)c4ccccc4C3(C)C)c2Cl)cc1 | > 10 | > 10 | –
35 | CNC(=O)c1nnsc1[S+]([O-])c1ccc(Cl)cc1 (configuration not stated) | – | > 10.9 | IC50 (FFLUC_HILL_SLOPE 1.33, FFLUC_R_SQUARED 0.248, HEPG2TOX_HILL_SLOPE 10.3, HEPG2TOX_R_SQUARED 0.738, read-out: LUCIFERASE INFECTION ASSAY - IC50): > 10.9 µM
36 | CC(=O)Nc1ccc(-c2cnc3ccc(-c4cccs4)nn23)cc1 | – | 2.75 | IC50 (HEPG2TOX_HILL_SLOPE 1.84, HEPG2TOX_R_SQUARED 0.871, PBLUC_HILL_SLOPE 5.5, PBLUC_R_SQUARED 0.751, read-out: LUCIFERASE INFECTION ASSAY - IC50): 1.84 µM
37 | O=C(C1CN(C(=O)CCCc2c[nH]c3ccccc23)c2ccccc2O1)N1CCCCC1 (configuration not stated) | > 10 | > 10 | –
38 | CC(OC(=O)c1cccnc1N)C(=O)Nc1ccc2ccccc2c1 (configuration not stated) | > 10 | > 10 | –
39 | O=[N+]([O-])c1ccc(OCc2ccccc2)c(Cl)c1 | > 12.5 | > 12.5 | –
40 | O=C(Nc1nc(CN2CCCCC2)cs1)c1ccc2[nH]c3c(c2c1)CCCC3 | > 10 | > 10 | –
41 | Cc1ccccc1CNc1ncnc2sccc12 | 5.22 | > 10 | –
